In paper PMC8903829 (eLife, 2022):

Columns and labels:
[1] = Bioanalytical assessment of plasma and brain concentrations after 6 Hz assay; type: in vivo, mouse; conditions: Scn8a^N1768D/+, mouse, in vivo, SCN8A mouse 6HZ
Method: (§1) Approximately 0.5 mL of blood was collected from each mouse at the end of the assay via cardiac puncture under deep anesthesia. The blood samples were collected in a syringe and transferred to tubes containing EDTA. Blood was stored at 4 °C until centrifuged within 30 min of collection. Plasma was harvested and placed on dry ice and stored in a freezer set to maintain a temperature of –70°C to –80°C until analysis. Brains were harvested immediately after blood collection and placed on dry ice prior to storage in a freezer set to maintain a temperature of –70°C to –80°C until analysis.
(§2) Extraction of plasma samples was carried out by protein precipitation using acetonitrile. Plasma samples (50 µL) were mixed with 50 µL of internal standard (IS) solution in water followed by addition of 10 µL of concentrated ortho-phosphoric acid and 200 µL of acetonitrile. Samples were vortexed for 30 seconds, centrifuged at 13,000 rpm for 20 min, decanted in to a 96-well plate, and further centrifuged at 4000 rpm for 20 min. The samples were analyzed by UHPLC-ESI-MS/MS as described below.
(§3) Prior to extraction, pre-weighed whole brains were homogenized in 1:1 acetonitrile/water (v/v) (4 mL per mouse brain) using an IKA T18 ULTRA-TURRAX Homogenizer at the setting of 4 for approximately 2 min. The homogenate was centrifuged at 13,000 rpm for 20 min and 50 µL of the supernatant were treated exactly as described above for plasma samples. […]
(§4) Samples were analyzed by UHPLC-ESI MS/MS using a TQ-5500 Sciex triple quadrupole mass spectrometer equipped with a Shimadzu Nexera UHPLC pump and auto-sampler system using an ACE C18 PFP, 2.50 × 50 mm, 1.7 µm particle size column and gradient elution consisting of solvent A (0.1% formic acid in water) and solvent B (0.1% formic acid in acetonitrile) starting at 20% B from 0 min to 0.4 min and then increased to 100% B from 0.4 min to 0.6 min. At 2.0 min, the mobile phase composition was switched back to […] for 1 min. The flow rate used throughout the experiment was […]. […] The UHPLC-ESI MS/MS system was controlled by Analyst 1.6.
(§5) Sample concentrations were determined using a linear calibration function, weighted 1 /X, generated by the regression of analyte to IS peak area ratios in the standard samples to their respective concentrations. Acceptance criteria for the analytical run required that the back calculated values of the standards and the QC samples fell within ±20% of their nominal values, except for the lowest standard or lower limit of quantitation (LLOQ), for which the acceptance criterion was ±25%. At least 6 out of 12 standard points had to show back-calculated values within ±20% of their nominal concentrations for the calibration to be accepted. At least three QC samples, one at each level, had to show back-calculated values within ±20% of their nominal concentrations for the whole sample batch to be valid.

[2] = Bioanalytical assessment of plasma and brain concentrations after rat DC-MES assay; type: in vivo; conditions: rat, in vivo, Rat DC-MES
[3] = Bioanalytical assessment of plasma and brain concentrations after mouse DC-MES assay; type: in vivo; conditions: mouse, in vivo, WT mouse DC-MES acute
Method: as §1, §2, §3, §4, §5

wild-type mice (CF-1) = assay: DC-Maximal electroshock seizure assay (DC-MES); type: in vivo, mouse
Method: Phenytoin was formulated in physiologic saline and was administered intraperitoneally (i.p.) using a 25-gauge needle at a dose volume of 10 mL/kg. All compounds were administered 2 hr prior to electrical seizure induction for all seizure models employed in this study.
The maximal electroshock seizure (MES) assay has been extensively used in the search for anticonvulsant substances ([Löscher et al., 1991]; [Piredda et al., 1985]; [White et al., 1995]). The MES assay is sensitive to nonselective NaV inhibitors. It is considered a model for generalized tonic-clonic (GTC) seizures and provides an assessment of seizure spread. Briefly, an electroshock of direct current (DC) was delivered by corneal electrodes (Electro Convulsive Therapy Unit 57,800 from Ugo Basile). The parameters of stimulation were different between mice and rats. In CF1 mice aged 9–12 weeks, a direct current of 50 mA (60 Hz) was delivered for 0.2 s (pulse width of 0.5ms), whereas in Sprague Dawley (SD) rats aged 5–6 weeks, a direct current of 150 mA (60 Hz) was delivered for 0.3 s (pulse width of 0.5ms). Immediately prior to the electroshock, the animals’ eyes were anesthetized with a drop of Alcaine (0.5% proparacaine hydrochloride).
An animal was considered protected in the assay in the absence of a GTC with hindlimb extension and is then scored ‘0’. An animal displaying GTC with hindlimb extension was considered not protected and is then scored ‘1’. The experimenter scoring the seizure behavior was blinded to the treatment.

Sprague Dawley rats = assay: Observation of potential adverse behavior (behavioral signs) in the rat DC-MES studies; type: in vivo; conditions: for behavioral signs concentration (BSC) / plasma EC50 ratio (Tolerability / EC50 Rat MES): rat DC-MES
Method: Animals were observed by the scientist(s) responsible for dosing for the first 30 min after dosing for and again at the time of assay (2 hr post dose) for signs of abnormal behavior.

COC[C@@H](NC(C)=O)C(=O)NCc1ccccc1 [lacosamide, Lacosamide, reference compound]
concentration at 2 h ([1]; 1 mg/kg, Study18011, 1 mg/kg, read-out: Mean [Brain]): 0.728 µM | concentration at 2 h ([1]; 1 mg/kg, Study18011, 1 mg/kg, read-out: Mean [Palsma]): 1.12 µM | concentration at 2 h ([1]; 3 mg/kg, Study18007, 3 mg/kg, read-out: Mean [Brain]): 2.84 µM | concentration at 2 h ([1]; 3 mg/kg, Study18007, 3 mg/kg, read-out: Mean [Palsma]): 3.48 µM | concentration at 2 h ([1]; 10 mg/kg, Study18007, 10 mg/kg, read-out: Mean [Brain]): 9.32 µM | concentration at 2 h ([1]; 10 mg/kg, Study18007, 10 mg/kg, read-out: Mean [Palsma]): 10.7 µM | concentration at 2 h ([1]; 10 mg/kg, Study18028, 10 mg/kg, read-out: Mean [Brain]): 7.58 µM | concentration at 2 h ([1]; 10 mg/kg, Study18028, 10 mg/kg, read-out: Mean [Palsma]): 11.8 µM | concentration at 2 h ([1]; 10 mg/kg, Study18042, 10 mg/kg, read-out: Mean [Brain]): 3.27 µM | concentration at 2 h ([1]; 10 mg/kg, Study18042, 10 mg/kg, read-out: Mean [Palsma]): 14.4 µM | concentration at 2 h ([1]; 30 mg/kg, Study18007, 30 mg/kg, read-out: Mean [Brain]): 21 µM | concentration at 2 h ([1]; 30 mg/kg, Study18007, 30 mg/kg, read-out: Mean [Palsma]): 25.2 µM | concentration at 2 h ([1]; 30 mg/kg, Study18011, 30 mg/kg, read-out: Mean [Brain]): 19.2 µM | concentration at 2 h ([1]; 30 mg/kg, Study18011, 30 mg/kg, read-out: Mean [Palsma]): 29.6 µM | concentration at 2 h ([1]; 56 mg/kg, Study18011, 56 mg/kg, read-out: Mean [Brain]): 28.3 µM | concentration at 2 h ([1]; 56 mg/kg, Study18011, 56 mg/kg, read-out: Mean [Palsma]): 44.7 µM | concentration at 2 h ([2]; 2 mg/kg, Study18060, 2 mg/kg, read-out: Mean [Brain]): 0.641 µM | concentration at 2 h ([2]; 2 mg/kg, Study18060, 2 mg/kg, read-out: Mean [Palsma]): 2.97 µM | concentration at 2 h ([2]; 6 mg/kg, Study18060, 6 mg/kg, read-out: Mean [Brain]): 1.78 µM | concentration at 2 h ([2]; 6 mg/kg, Study18060, 6 mg/kg, read-out: Mean [Palsma]): 8.43 µM | concentration at 2 h ([2]; 12 mg/kg, Study18060, 12 mg/kg, read-out: Mean [Brain]): 3.74 µM | concentration at 2 h ([2]; 12 mg/kg, Study18060, 12 mg/kg, read-out: Mean [Palsma]): 22.9 µM | concentration at 2 h ([2]; 100 mg/kg, Study18068, 100 mg/kg, read-out: Mean [Brain]): 38.2 µM | concentration at 2 h ([2]; 100 mg/kg, Study18068, 100 mg/kg, read-out: Mean [Palsma]): 73.5 µM | concentration at 2 h ([3]; 3 mg/kg, Study18003, 3 mg/kg, read-out: Mean [Brain]): 3.47 µM | concentration at 2 h ([3]; 3 mg/kg, Study18003, 3 mg/kg, read-out: Mean [Palsma]): 3.25 µM | concentration at 2 h ([3]; 3 mg/kg, Study18053, 3 mg/kg, read-out: Mean [Brain]): 1.95 µM | concentration at 2 h ([3]; 3 mg/kg, Study18053, 3 mg/kg, read-out: Mean [Palsma]): 6.21 µM | concentration at 2 h ([3]; 3 mg/kg, Study18063, 3 mg/kg, read-out: Mean [Brain]): 1.26 µM | concentration at 2 h ([3]; 3 mg/kg, Study18063, 3 mg/kg, read-out: Mean [Palsma]): 4.46 µM | concentration at 2 h ([3]; 10 mg/kg, Study18003, 10 mg/kg, read-out: Mean [Brain]): 11.5 µM | concentration at 2 h ([3]; 10 mg/kg, Study18003, 10 mg/kg, read-out: Mean [Palsma]): 9.52 µM | concentration at 2 h ([3]; 30 mg/kg, Study18003, 30 mg/kg, read-out: Mean [Brain]): 34.3 µM | concentration at 2 h ([3]; 30 mg/kg, Study18003, 30 mg/kg, read-out: Mean [Palsma]): 26.7 µM | EC50 (wild-type mice (CF-1); Mus musculus, 2 h, read-out: brain EC50): 7.1 µM | WT mouse DC-MES acute Fraction of animals seizing (wild-type mice (CF-1); Study18003, 3 mg/kg): 0.625 | WT mouse DC-MES acute Fraction of animals seizing (wild-type mice (CF-1); Study18003, 10 mg/kg): 0.375 | WT mouse DC-MES acute Fraction of animals seizing (wild-type mice (CF-1); Study18003, 30 mg/kg): 0.125 | WT mouse DC-MES acute Fraction of animals seizing (wild-type mice (CF-1); Study18053, 3 mg/kg): 0.6667 | WT mouse DC-MES acute Fraction of animals seizing (wild-type mice (CF-1); Study18063, 3 mg/kg): 0.75 | minimal plasma concentration provoking behavioral signs (BSC) (Sprague Dawley rats; rat): 123 µM | behavioral signs concentration (BSC) / plasma EC50 ratio (Tolerability / EC50 Rat MES) (Sprague Dawley rats): 5.0 fold | behavioral signs concentration (BSC) / plasma EC50 ratio (Tolerability / EC50 Rat MES) (Sprague Dawley rats; listed as Lacosamide): 6.3 fold
